From publication PMC3503319 (Biochemistry, 2010)

Biological target: B. subtilis DAPAS (Bs-DAPAS) (Bacillus subtilis, UniProt P53555)
Experiment: X-ray crystal structure, […] Å
Type: binding
Conditions: active site

Chain of B. subtilis DAPAS (Bs-DAPAS) (P53555 whole entry, looked up): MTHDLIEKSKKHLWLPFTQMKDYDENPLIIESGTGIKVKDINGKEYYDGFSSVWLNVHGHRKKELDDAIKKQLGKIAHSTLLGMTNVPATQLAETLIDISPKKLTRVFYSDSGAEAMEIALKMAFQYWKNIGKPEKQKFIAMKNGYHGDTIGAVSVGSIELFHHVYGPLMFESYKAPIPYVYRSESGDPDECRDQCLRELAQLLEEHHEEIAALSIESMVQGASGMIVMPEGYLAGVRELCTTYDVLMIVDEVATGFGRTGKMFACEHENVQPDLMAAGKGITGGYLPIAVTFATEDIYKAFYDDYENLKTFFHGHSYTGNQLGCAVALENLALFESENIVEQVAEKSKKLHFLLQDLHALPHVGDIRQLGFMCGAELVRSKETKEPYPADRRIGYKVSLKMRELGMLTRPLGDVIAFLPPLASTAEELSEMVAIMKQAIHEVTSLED

`Cc1ncc(COP(=O)(O)O)c(C=O)c1O` [PLP] was tested, and the “X-ray crystal structure, 1.9 Å (cocrystallization, 1 mM PLP)” value was “the crystal structure of the B. subtilis DAPAS apoprotein, its PLP-bound complex”.
